For 18 molecules, IC95 results are on record in US7517532B2, “Dihydroxypyridopyrazine-1,6-dione compounds useful as HIV integrase inhibitors” (Merck & Co., Inc., priority 2002, dated 2009).

A value given as a limit tells only on which side of the number the result lay.

The IC95 is the concentration at which the effect reaches the 95% level. Low values mean an effect from little substance, high ones a need for much substance.

This test deals with HIV. Put plainly: Assay for inhibition of HIV replication (acute HIV infection of T-lymphoid cells). Format: cell-based. The conditions noted are these: Human immunodeficiency virus 1, T-lymphoid. How it is done:
Assay for Inhibition of HIV Replication
Assays for the inhibition of acute HIV infection of T-lymphoid cells were conducted in accordance with Vacca, J. P. et al., Proc. Natl. Acad. Sci. USA 1994, 91: 4096.
As for `CCOC[C@@H]1[C@@H]2[C@H]1n1c(c(O)c(O)cc1=O)C(=O)N2Cc1ccc(F)cc1` (racemic) [Example 42, (±)-1-(Ethoxymethyl)-2-(4-fluorobenzyl)-4,5-dihydroxy-1,1a,2,8a-tetrahydrocyclo-propa[e]pyrido[1,2-a]pyrazine-3,7-dione], the IC95 was under 1000 nM. Under `CCCOC[C@@H]1[C@@H]2[C@H]1n1c(c(O)c(O)cc1=O)C(=O)N2Cc1ccc(F)cc1` (racemic) [Example 43, (±)-1-(n-Propoxymethyl)-2-(4-fluorobenzyl)-4,5-dihydroxy-1,1a,2,8a-tetrahydrocyclo-propa[e]pyrido[1,2-a]pyrazine-3,7-dione] stands under 1000 nM; under `O=C1c2c(O)c(O)cc(=O)n2CCN1Cc1ccccc1` [Example 1, 2-Benzyl-8,9-dihydroxy-3,4-dihydro-2H-pyrido[1,2-a]pyrazine-1,6-dione], under 5000 nM; under `Cc1c(O)c(O)c2n(c1=O)CCN(Cc1ccc(F)cc1)C2=O` [Example 3, 2-(4-Fluorobenzyl)-8,9-dihydroxy-7-methyl-3,4-dihydro-2H-pyrido[1,2-a]pyrazine-1,6-dione], under 5000 nM. The same measure for `O=C1c2c(O)c(O)c(Br)c(=O)n2CCN1Cc1ccc(F)cc1` [Example 4, 2-(4-Fluorobenzyl)-8,9-dihydroxy-7-bromo-3,4-dihydro-2H-pyrido[1,2-a]pyrazine-1,6-dione]: under 5000 nM; for `O=C1c2c(O)c(O)c(I)c(=O)n2CCN1Cc1ccc(F)cc1` [Example 5, 2-(4-Fluorobenzyl)-8,9-dihydroxy-7-iodo-3,4-dihydro-2H-pyrido[1,2-a]pyrazine-1,6-dione]: under 5000 nM. The same measure for `O=C1c2c(O)c(O)cc(=O)n2CCN1Cc1ccc(Cl)cc1` [Example 7, 2-(4-Chlorobenzyl)-8,9-dihydroxy-3,4-dihydro-2H-pyrido[1,2-a]pyrazine-1,6-dione]: under 5000 nM; for `CN(C)Cc1c(O)c(O)c2n(c1=O)CCN(Cc1ccc(F)cc1)C2=O` [Example 13, 2-(4-Fluorobenzyl)-8,9-dihydroxy-7-[(dimethylamino)methyl]-3,4-dihydro-2H-pyrido[1,2-a]pyrazine-1,6-dione]: under 5000 nM; for `CC1CN(Cc2ccc(F)cc2)C(=O)c2c(O)c(O)cc(=O)n21` (stereo not drawn) [Example 16, 2-(4-Fluorobenzyl)-8,9-dihydroxy-4-methyl-3,4-dihydro-2H-pyrido[1,2-a]pyrazine-1,6-dione]: under 5000 nM. Consider `CC1(C)CN(Cc2ccc(F)cc2)C(=O)c2c(O)c(O)cc(=O)n21` [Example 17, 2-(4-Fluorobenzyl)-8,9-dihydroxy4,4dimethyl-3,4-dihydro-2H-pyrido[1,2-a]pyrazine-1,6-dione], for which the IC95 was under 5000 nM. In turn, `CC1Cn2c(c(O)c(O)cc2=O)C(=O)N1Cc1ccc(F)cc1` (stereo not drawn) [Example 18, 2-(4-Fluorobenzyl)-8,9-dihydroxy-3-methyl-3,4-dihydro-2H-pyrido[1,2-a]pyrazine-1,6-dione] had an IC95 of under 5000 nM.

Molecule `O=c1c2c(O)c(O)c(CN3CCCCC3)c(=O)n2ccn1Cc1ccc(F)cc1` [Example 25, 2-(4-Fluorobenzyl)-8,9-dihydroxy-7-(piperidin-1-ylmethyl)-2H-pyrido[1,2-a]pyrazine-1,6-dione] returned an IC95 of under 1000 nM.

`CN1CCN(Cc2c(O)c(O)c3c(=O)n(Cc4ccc(F)cc4)ccn3c2=O)CC1=O` [Example 27, 2-(4-Fluorobenzyl)-8,9-dihydroxy-7-[(4-methyl-3-oxopiperazin-1-yl)methyl]-2H-pyrido[1,2-a]pyrazine-1,6-dione] had an IC95 of under 1000 nM. The same measure for `O=c1c2c(O)c(O)c(CN3CCOCC3)c(=O)n2ccn1Cc1ccc(F)cc1` [Example 28, 2-(4-Fluorobenzyl)-8,9-dihydroxy-7-[(morpholin4yl)methyl]-2H-pyrido[1,2-a]pyrazine-1,6-dione]: under 1000 nM; for `O=c1c2c(O)c(O)c(CN3CCSCC3)c(=O)n2ccn1Cc1ccc(F)cc1` [Example 29, 2-(4-Fluorobenzyl)-8,9-dihydroxy-7-[(thiomorpholin-4-yl)methyl]-2H-pyrido[1,2-a]pyrazine-1,6-dione]: under 1000 nM; for `CSc1cc(F)ccc1Cn1ccn2c(=O)cc(O)c(O)c2c1=O` [Example 30, 2-[4-Fluoro-2-(methylthio)benzyl)-8,9-dihydroxy-2H-pyrido[1,2-a]pyrazine-1,6-dione]: under 1000 nM. Under `CC(=O)N1CCCC(Cc2c(O)c(O)c3n(c2=O)CCN(Cc2ccc(F)cc2)C3=O)C1` (stereo not drawn) [Example 34, 7-[(1-Acetylpiperidin-3-yl)methyl]-2-(4-fluorobenzyl)-8,9-dihydroxy-3,4-dihydro-2H-pyrido[1,2-a]pyrazine-1,6-dione] stands under 1000 nM; under `CC(=O)N1CCCCC1Cc1c(O)c(O)c2n(c1=O)CCN(Cc1ccc(F)cc1)C2=O` (stereo not drawn) [Example 35, 7-[(1-Acetylpiperidin-2-yl)methyl]-2-(4-fluorobenzyl)-8,9-dihydroxy-3,4-dihydro-2H-pyrido[1,2-a]pyrazine-1,6-dione], under 1000 nM.
